We go through 3 compounds from publication PMC9855333, “1-(Arylsulfonyl-isoindol-2-yl)piperazines as 5-HT6R Antagonists: Mechanochemical Synthesis, In Vitro Pharmacological Properties and Glioprotective Activity” (Biomolecules, 2022).

Some results are limits rather than exact numbers.

Data set [1] is described as follows: Cytotoxicity, MTT test, HepG2. The following applies: human, HepG2 cells (human hepatocellular carcinoma). It is filed as cell-based. How it is done: Hepatotoxicity, neurotoxicity, and glial cytotoxicity were investigated using the following cellular models: human hepatocellular carcinoma (HepG2), human neuroblastoma (SHSY-5Y), and mouse astrocytes (C8-D1A), all from ATCC (American Type Culture Collection, Manassas, VA, USA). Cells were cultured in appropriate culture media recommended by ATCC supplemented with 10% fetal bovine serum (FBS; Gibco, Life Technologies, Carlsbad, CA, USA) and 1% antibiotic mixture (Gibco, Life Technologies, Carlsbad, CA, USA). Cells were cultured at standard conditions (5% CO2, 95% humidity, 37 °C). For cytotoxicity experiments, cells were seeded into 96 well plates at an initial density of 2000 cells/well. After overnight incubation, cells were treated with 3e, 3f, and 3g in a concentration range of 0.78–50 µM for 48 h; then, an MTT assay was performed as described previously. Briefly, following cell exposure, 10 µL of MTT reagent was added to each well. After the next 4 h, the medium was aspirated, and formazan produced in cells appeared as dark crystals in the bottom of the wells. Next, 100 µL DMSO was added to each well. Then, the optical density of the solution (OD) at 570 nm was determined on a plate reader (Spectra Max iD3, Molecular Devices, San Jose, CA, USA). The experiments were run three times in triplicates.

The target of another data set is 5-HT6R (Homo sapiens, UniProt P50406). The data set is described as follows: Basal cAMP production by constitutively active 5-HT6R in NG108-15 cells (CAMYEL BRET). Format: cell-based. On the set-up: expressed in transfected cells; host or cells: NG108-15 (mouse neuroblastoma x rat glioma hybrid), transient co-transfection with CAMYEL, Lipofectamine 2000. Conditions: NG108-15 cells transiently expressing 5-HT6R. On the procedure: Changes in cyclic AMP levels upon exposure to increasing concentrations of the tested compounds were assessed by BRET (Bioluminescence Resonance Energy Transfer) measurement using a Mithras LB 940 plate reader (Berthold Technologies), as previously described. A detailed description is reported in the Supporting Information.
2. Procedure for determination of functional activity at Gs signaling
2.1. Impact of compound 3e, 3f and 3g on cAMP production in 1321N1 cells The properties of evaluated compounds to inhibit cAMP production induced by 5-CT (1000 nM), a 5-HT6R agonist, was assessed according to previously published procedures. The level of cAMP was measured using frozen recombinant 1321N1 cells expressing the human serotonin 5-HT6R (PerkinElmer). Total cAMP was measured using the LANCE cAMP detection kit (PerkinElmer), according to the manufacturer's recommendations. For quantification of cAMP levels, 2000 cells/well (5 μL) were incubated with mixture of compound 3e, 3f and 3g (5 μL) for 30 min at room temperature in 384-well white opaque microtiter plate. After incubation, the reaction was stopped and cells were lysed by the addition of 10 μL of working solution (5 μL Eu-cAMP and 5 μL ULight-anti-cAMP) for 1 h at room temperature. Time-resolved fluorescence resonance energy transfer (TR-FRET) was detected by an Infinite M1000 Pro (Tecan) using instrument settings from LANCE cAMP detection kit manual. Compound was tested in triplicate at 8 concentrations (10-11–10-4 M). Kb values were calculated from Cheng–Prusoff equation specific for the analysis of functional inhibition curves:
Kb = IC50/(1+A/EC50) where A represents agonist concentration, IC50 the concentration of antagonist producing a 50% reduction in the response to agonist, and EC50 the agonist concentration which causes a half of the maximal response.
1.1.1. Impact of evaluated compounds on cAMP production elicited by constitutively active […]
BRET was measured using a Mithras LB 940 plate reader (Berthold Technologies). […]

The subject of data set [2] is C8-D1A astrocytes. The data set can be described thus: Glioprotection against 6-OHDA-induced cytotoxicity, MTT. It is filed as cell-based, mouse. Conditions: compound 0.25 µM, 6-OHDA 20 µM, 24 h. On the procedure: (§1) Mouse astrocytes (C8-D1A cell line, ATCC) were cultured in DMEM (Dulbecco’s Modified Eagle’s Medium) supplemented with 10% FBS (FBS; Gibco, Life Technologies, Carlsbad, CA, USA) and 1% antibiotic mixture (Gibco, Life Technologies, Carlsbad, CA, USA) at standard condition until the cells reached 80–90% confluence. Cells were harvested and seeded in 96-well plates at a density of 5000 cells/well. All experiments were conducted with a reduced amount of serum equal to 2.5%. The optimal amount of serum was determined experimentally on the basis of preliminary studies. […] Then 6-OHDA (20 µM) or rotenone (0.5 µM) were added and co-incubated for the next 24 h. The ability of tested compounds to prevent 6-OHDA-induced or rotenone-induced cytotoxicity was assessed by MTT assay following the protocol described above. The experiments were run three times in triplicates.
(§2) Considering the pivotal physiological role of astrocytes in contrasting oxidative stress and promoting tissue repair, supporting their neuroprotective function might be regarded as a tangible strategy to improve the current therapeutic needs in the treatment of neurodegenerative disorders. […] For this purpose, cells were co-incubated with the evaluated compounds (at the non-toxic concentration of 0.25 µM) and 6-OHDA or ROT (20 and 0.5 µM, respectively). After 24 h of incubation, the viability of astrocytes was determined using the MTT assay.

Data set [3] has as its system C8-D1A astrocytes. The data set is described as follows: Glioprotection against rotenone-induced cytotoxicity, MTT. It is filed as cell-based, mouse. The following applies: compound 0.25 µM, rotenone 0.5 µM, 24 h. On the procedure:
as §1, §2

Chain of 5-HT6R (P50406 whole entry): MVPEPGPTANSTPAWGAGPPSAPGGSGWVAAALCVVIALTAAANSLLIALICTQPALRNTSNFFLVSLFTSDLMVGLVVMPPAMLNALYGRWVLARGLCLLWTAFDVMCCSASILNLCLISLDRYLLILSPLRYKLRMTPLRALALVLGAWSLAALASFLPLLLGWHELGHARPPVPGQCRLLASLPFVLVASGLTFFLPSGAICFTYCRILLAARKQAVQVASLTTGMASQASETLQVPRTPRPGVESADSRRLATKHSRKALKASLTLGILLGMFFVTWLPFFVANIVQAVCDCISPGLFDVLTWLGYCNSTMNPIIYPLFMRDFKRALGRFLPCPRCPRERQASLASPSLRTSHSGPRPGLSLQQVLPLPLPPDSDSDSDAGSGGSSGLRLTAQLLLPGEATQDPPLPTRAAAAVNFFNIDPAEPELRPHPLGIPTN

The compound `O=S(=O)(c1cccc(N2CCNCC2)c1)N1Cc2ccccc2C1` [3e, 2-{[3-(Piperazin-1-yl)phenyl]sulfonyl}isoindoline] showed an IC50 at 48 h in data set [1] above 50 µM. The “5-HT6R Functional Profile at Gs Signaling” value (“5-HT6R Functional Profile” for short) at 5-HT6R is “Neutral antagonist”.
Regarding `O=S(=O)(c1cccc(N2CCNCC2)c1)N1Cc2cccc(Cl)c2C1` [3f, 4-Chloro-2-{[3-(piperazin-1-yl)phenyl]sulfonyl}isoindoline], the IC50 at 48 h in data set [1] is above 50 µM. Besides, the “5-HT6R Functional Profile” value on 5-HT6R is “Neutral antagonist”.
In data set [1], `O=S(=O)(c1cccc(N2CCNCC2)c1)N1Cc2cccc(Br)c2C1` [3g, 4-Bromo-2-{[3-(piperazin-1-yl)phenyl]sulfonyl}isoindoline] gave an IC50 at 48 h above 50 µM. Also, the “effect on 6-OHDA-induced cytotoxicity” value with C8-D1A astrocytes [2] is given as “decreased the cytotoxicity”. For the same compound, the “effect on ROT-induced cytotoxicity” value with C8-D1A astrocytes [3] was “decreased the cytotoxicity”. Further, the “5-HT6R Functional Profile” value at 5-HT6R is reported as “Neutral antagonist”.
